Results published in the NIST ThermoML archive (doi:10.1016/j.tca.2009.07.011).
± gives the expanded uncertainty stated by the source. One block for each compound: values may come before it.

Key:
[1] = 298.15 K, 101 kPa, Liquid
[2] = refractive index (Na D-line) (dimensionless); settings: 298.15 K; 101.33 kPa; Liquid; Standard Abbe refractometry
[3] = xn = mol fraction of the nth substance listed; settings: 298.15 K, 101 kPa, Liquid; for viscosity: Capillary tube (Ostwald / Ubbelohde) method; for mass density: Pycnometric method; for speed of sound: ultra sonice interferometer
[4] = refractive index (Na D-line) (dimensionless); xn = mol fraction of the nth substance listed; settings: 298.15 K, 101 kPa, Liquid, Standard Abbe refractometry

viscosity ([1]; Capillary tube (Ostwald / Ubbelohde) method): 0.588 ± 0.008 mPa·s
mass density ([1]; Pycnometric method): 1057 ± 0.6 kg/m3
speed of sound ([1]; ultra sonice interferometer): 1339 ± 1 m/s
refractive index [2]: 1.398 ± 0.001
Compound: C1COCO1 [1,3-dioxolane]

Compound: ClCCl [dichloromethane] + CCCOC(C)=O
viscosity ([3]; x1 = 0.546): 0.518 ± 0.007 mPa·s
mass density ([3]; x1 = 0.546): 1053.5 ± 0.6 kg/m3
speed of sound ([3]; x1 = 0.546): 1181 ± 1 m/s
refractive index ([4]; x1 = 0.546): 1.397 ± 0.001

viscosity ([3]; x2 = 0.6052): 0.633 ± 0.008 mPa·s
mass density ([3]; x2 = 0.6052): 1043.3 ± 0.6 kg/m3
speed of sound ([3]; x2 = 0.6052): 1115 ± 1 m/s
refractive index ([4]; x2 = 0.6052): 1.406 ± 0.001
Compound: CC(=O)OCCC(C)C [3-methylbutyl ethanoate] + ClCCl

Compound: ClCCl [dichloromethane] + CCOC(C)=O
viscosity ([3]; x1 = 0.5092): 0.456 ± 0.007 mPa·s
mass density ([3]; x1 = 0.5092): 1059.2 ± 0.6 kg/m3
speed of sound ([3]; x1 = 0.5092): 1059 ± 1 m/s
refractive index ([4]; x1 = 0.5092): 1.388 ± 0.001

Compound: ClCCl [dichloromethane] + COC(C)=O
viscosity ([3]; x1 = 0.4659): 0.425 ± 0.007 mPa·s
mass density ([3]; x1 = 0.4659): 1078 ± 0.6 kg/m3
speed of sound ([3]; x1 = 0.4659): 1056 ± 1 m/s
refractive index ([4]; x1 = 0.4659): 1.38 ± 0.001

Compound: ClCCl [dichloromethane] + CCCCOC(C)=O
viscosity ([3]; x1 = 0.5777): 0.575 ± 0.008 mPa·s
mass density ([3]; x1 = 0.5777): 1049.2 ± 0.6 kg/m3
speed of sound ([3]; x1 = 0.5777): 1181 ± 1 m/s
refractive index ([4]; x1 = 0.5777): 1.403 ± 0.001
